Results taken from patent US8906952B2, “Indole derivative or pharmaceutically acceptable salt thereof, preparation method thereof, and pharmaceutical composition for preventing or treating metabolic diseases containing same as active ingredient” (Korea Research Institute of Bioscience and Biotechnology, priority 2011, dated 2014).

Experiments:
HuTu80 cells = experiment: DGAT activity inhibitory effect in HuTu80 cells (triglyceride production from [14C]oleate); assay type: cell-based, human; details: for activity at 0.3 µM / activity at 1 µM / activity at 3 µM / activity at 10 µM / inhibition at 10 µM: Homo sapiens, HuTu80; for activity at 0.3 µM / activity at 1 µM / activity at 3 µM / activity at 10 µM: read-out: Triglyceride Production Rate (% of control)/HuTu80cells; for inhibition at 10 µM / inhibition of biosynthesis of triglycerides (in words): Hutu 80 cells; for inhibition at 10 µM: read-out: inhibitory activity on intracellular biosynthesis of triglycerides
Description: HuTu80 cells were seeded in 24-well culture plate by 2×10^5 cells/well. After 24 hr, the medium was exchanged with FBS-free DMEM and concurrently treated with sample and substrate. For the substrate, 0.5 μCi [^14C]oleate was respectively added and allowed to react for 2 hr. After the reaction, the substrate that was either not absorbed into cells or not used for the reaction were washed with PBS two times, and total fat containing triglyceride was extracted by adding 1 ml extraction solvent (n-hexane/2-propanol=3/2, v/v). The extract was concentrated with nitrogen gas. The total fat after elimination of extraction solvent was dissolved in organic solvent (chloroform/methanol=2/1, v/v), spotted on thin layer chromatography (TLC: silica gel 60F254, 0.5 mm, Merck), and developed on developing solvent (n-hexane/diethyl ether/acetic acid=80/20/1, v/v/v). After isolating triglyceride (R∫ value: 0.4) from TLC, exposing to the film with photosensitivity to energy of radioactive elements (imaging plate's Fujifilm, BAS-MS 2040) for 3 hr, and the radioactive dose of triglyceride was measured by conducting image analysis (FLA 7000).
The remaining cells after the extraction were dissolved in 0.3 ml 0.1N NaOH to measure the protein concentration of the cells used for the reaction. The protein quantification was performed with Lowry method-based, protein quantification kit (Bio-Rad). After seeding protein on 96-well, round bottom culture plate, 25 μl of solution containing 1 ml protein analysis reagent (bio-rad, alkaline copper tartrate solution) and 20 μl protein reagent S (bio-rad, surfactant solution) was seeded per well, to induce reaction between copper ion and protein. After reaction with copper ion, 200 μl reagent B (bio-rad, folin reagent) was seeded per well to allow reduction reaction of the folin reagent to occur. For the amount of protein, the light absorptivity at 750 nm was measured based on the blue coloring of the folin reagent as the reduction occurred, and the concentrations of the protein corresponding to respective light absorptivities were quantified by obtaining standard curves with the standard material as bovine serum albumin (BSA). Using the experiment value, which is obtained by dividing the measured radiation dose of the triglyceride by the protein concentration, the above process was repeated three or more times, and the mean value with ±standard error was obtained, as tabulated below.

C57BL/6J mice = experiment: Oral lipid tolerance test (OLTT), corn oil load; assay type: in vivo; details: for increase of triglyceride concentration: 30 mg/kg; for effect on blood triglyceride concentration (in words): administered to mice
Description: For experiment, 8-week-old male C57BL/6J mice were purchased from Biolink, adapted to environment in bio clean room (Temp. 22±3° C., Humidity 50±10%, Lighting 12 hr interval) for 1 week, and one day before the experiment, fasted for 16 hr. The mice were allowed to freely eat radiation-sterilized solid rodent feed (Harlan, Ind., USA), except for the 16 hr fasting period before the administration of test sample, and were also allowed to freely have a sufficient amount of drinking water which was sterilized in autoclave throughout the test period.
Seven C57BL/6J mice were allocated for solvent control group (V.C., Vehicle Control), and another seven for experimental group (sample group), after which sample was administered as follows.
The normal control group was administered with administration medium (0.5% CMC; carboxy methyl cellulose) only, while the experimental group was orally administered with the compounds of Examples 27 and 49 by 10, 30 mg/kg concentrations, respectively. Before administering the samples to all the animals of the experimental group, the animals were fasted for 16 hr, after which the corresponding sample was orally administered one time, using sonde for oral administration. After 60 min, 6 ml/kg liquid measure of corn oil was orally administered. Blood samples were taken immediately before administration of the corn oil (at 0 hr), and after the corn coil administration, the blood samples were taken directly using heparin-treated capillary tube from retro-orbital sinus at predetermined time (at 2 hr and at 4 hr). The blood samples were centrifuged at 3,000 rpm for 10 min to separate plasma, and the concentration of triglyceride was directly analyzed with automated hematology chemistry analyzer (Hitachi 7150, Japan).

ICR mice = experiment: Acute toxicity assay; assay type: in vivo; details: oral 100, 250 mg/kg; observation over two weeks
Description: In order to investigate acute toxicity of the indole derivatives according to the present invention, mice (20±5 g, Central Lab. Animal Inc.) and rats (235±10 g, Central Lab. Animal Inc.) were used for the acute toxicity assay of compound 1.
A total of […] of 10 ICR mice were orally administered with compound 1 according to the present invention by the dose of 100, 250 mg/kg, respectively.

[1] = 10 mg/kg oral, 0 hr (immediately before corn oil)
[2] = 10 mg/kg oral, 2 hr after corn oil
[3] = 10 mg/kg oral, 4 hr after corn oil
[4] = 30 mg/kg oral, 0 hr (immediately before corn oil)
[5] = 30 mg/kg oral, 2 hr after corn oil
[6] = 30 mg/kg oral, 4 hr after corn oil
[7] = after 2 hr of corn oil administration
[8] = after 4 hr of corn oil administration

## CC(C)=CCn1cc(/C=C/C(=O)N(NC(=O)c2ccc(F)cc2)C(C)C)c2ccccc21 [Example 49, (E)-4-fluoro-N′-isopropyl-N′-(3-(1-(3-methylbut-2-enyl)-1H-indol-3-yl)acryloyl)benzohydrazide]
HuTu80 cells
  activity at 0.3 µM: 66.9 ± 3%
  activity at 1 µM: 33.4 ± 4.4%
  activity at 3 µM: 21.4 ± 0.3%
  activity at 10 µM: 13.1 ± 0.9%
  inhibition at 10 µM: 70 to 80%
  inhibition of biosynthesis of triglycerides (in words): inhibited biosynthesis of triglycerides in a concentration-dependent manner
C57BL/6J mice; [1]
  Serum TG: 78.8 ± 23.2 mg/dL
C57BL/6J mice; [2]
  Serum TG: 90.8 ± 28.2 mg/dL
C57BL/6J mice; [3]
  Serum TG: 43.2 ± 12.9 mg/dL
C57BL/6J mice; [4]
  Serum TG: 45.8 ± 6.1 mg/dL
C57BL/6J mice; [5]
  Serum TG: 86.4 ± 11.1 mg/dL
C57BL/6J mice; [6]
  Serum TG: 50.0 ± 11.9 mg/dL
C57BL/6J mice; [7]
  increase of triglyceride concentration: ~2.3 fold
C57BL/6J mice; [8]
  increase of triglyceride concentration: ~1.8 fold
C57BL/6J mice
  effect on blood triglyceride concentration (in words): superior effect of decreasing blood triglyceride concentration

## Cc1ccc(C(=O)NN(C(=O)/C=C/c2cn(C(=O)OC(C)(C)C)c3ccccc23)C(C)C)cc1 [Example 48, (E)-tert-butyl 3-(3-(1-isopropyl-2-(4-methylbenzoyl)hydrazinyl)-3-oxoprop-1-enyl)-1H-indole-1-carboxylate]
HuTu80 cells
  activity at 10 µM: 23.9 ± 0.8%

## CC(C)CCn1cc(/C=C/C(=O)N(NC(=O)c2ccc(F)cc2)C(C)C)c2ccccc21 [Example 46, (E)-4-fluoro-N′-(3-(1-isopentyl-1H-indol-3-yl)acryloyl)-N′-isopropylbenzohydrazide]
HuTu80 cells
  activity at 0.3 µM: 30 ± 0.3%
  activity at 1 µM: 30 ± 1.3%
  activity at 3 µM: 20 ± 1.2%
  activity at 10 µM: 20 ± 1.8%
  inhibition at 10 µM: 70 to 80%
  inhibition of biosynthesis of triglycerides (in words): inhibited biosynthesis of triglycerides in a concentration-dependent manner

## CC(C)N(NC(=O)c1ccc(F)cc1)C(=O)/C=C/c1cn(C(=O)OC(C)(C)C)c2ccccc12 [Example 44, (E)-tert-butyl 3-(3-(2-(4-fluorobenzoyl)-1-isopropylhydrazinyl)-3-oxoprop-1-enyl)-1H-indole-1-carboxylate]
HuTu80 cells
  activity at 0.3 µM: 63.9 ± 4.3%
  activity at 1 µM: 43.7 ± 0.3%
  activity at 3 µM: 29 ± 0.9%
  activity at 10 µM: 20 ± 1.2%
  inhibition at 10 µM: 70 to 80%
  inhibition of biosynthesis of triglycerides (in words): inhibited biosynthesis of triglycerides in a concentration-dependent manner

## CC(C)=CCn1cc(/C=C/C(=O)N(NC(=O)c2ccccc2)C(C)C)c2ccccc21 [Example 27, (E)-N′-isopropyl-N′-(3-(1-(3-methylbut-2-enyl)-1H-indol-3-yl)acryloyl)benzohydrazide]
HuTu80 cells
  activity at 10 µM: 13.1 ± 0.9%
  inhibition at 10 µM: 70 to 80%
C57BL/6J mice; [1]
  Serum TG: 62.8 ± 20.6 mg/dL
C57BL/6J mice; [2]
  Serum TG: 171.0 ± 61.7 mg/dL
C57BL/6J mice; [3]
  Serum TG: 83.0 ± 22.8 mg/dL
C57BL/6J mice; [4]
  Serum TG: 45.4 ± 7.2 mg/dL
C57BL/6J mice; [5]
  Serum TG: 104.2 ± 40.3 mg/dL
C57BL/6J mice; [6]
  Serum TG: 79.8 ± 37.3 mg/dL
C57BL/6J mice; [7]
  increase of triglyceride concentration: approximately 1.9 fold
C57BL/6J mice; [8]
  increase of triglyceride concentration: approximately 1.1 fold
C57BL/6J mice
  effect on blood triglyceride concentration (in words): superior effect of decreasing blood triglyceride concentration

## CC(C)N(NC(=O)c1ccccc1)C(=O)/C=C/c1cn(C(=O)OC(C)(C)C)c2ccccc12 [Example 1, (E)-tert-butyl 3-(3-(2-benzoyl-1-isopropylhydrazinyl)-3-oxoprop-1-enyl)-1H-indole-1-carboxylate]
ICR mice
  death: no death
  difference on the outside: nor did the groups show any specific difference on the outside

## Cc1cccc(C(=O)NN(C(=O)/C=C/c2cn(C(=O)OC(C)(C)C)c3ccccc23)C(C)C)c1 [Example 47, (E)-tert-butyl 3-(3-(1-isopropyl-2-(3-methylbenzoyl)hydrazinyl)-3-oxoprop-1-enyl)-1H-indole-1-carboxylate]
HuTu80 cells
  activity at 0.3 µM: 56.1 ± 0.1%
  activity at 1 µM: 30.2 ± 1.2%
  activity at 3 µM: 19 ± 5%
  activity at 10 µM: 13.7 ± 1.5%
  inhibition at 10 µM: 70 to 80%
  inhibition of biosynthesis of triglycerides (in words): inhibited biosynthesis of triglycerides in a concentration-dependent manner
